“And” between values parts separate entries of the source, which are not always exact repeats. Equal values may be shown once.
Tests used:
navicular disease [1] = test: Efficacy of oral pentoxifylline in the treatment of navicular disease in horses (6 week lameness study); format: in vivo, horse
Excerpt: As previously mentioned, it is preferred to administer daily doses of pentoxifylline for a prescribed period of time in order to alleviate lameness caused by navicular disease. […] It is preferred to administer the daily doses tid. In this regard, powder, tablet or capsule formulations, containing between 2-10 gm of pentoxifylline should be administered for this purpose. As previously indicated, the amount of daily doses is dependent on a variety of factors, including the size of the horse being treated.
The purpose of the following study was to assess the efficacy of pentoxifylline in the treatment of navicular disease in horses; to establish an appropriate dosage and treatment interval, and to identify adverse effects from treatment.
Twenty-seven horses entered the study between September 1985 and March 1986.
Pentoxifylline was supplied as an oral powder prepared in individual plastic vials of 2 gm Pentoxifylline mixed with 4 gm icing sugar, to ensure palatability.
Diagnosis of navicular disease was made using the following criteria:
1) history - including clinical and previous treatment history.
lameness observed at walk and while lunging to the left and to the right.
3) diagnostic posterior digital nerve block
horses not sound following bilateral desensitization of the posterior digital nerves were not admitted into the study
4) radiographic examination of confirmation of disease as noted by classical navicular lesions, on a minimum of three views
Treatment was administered daily for 42 days.
Horses were characterized as either severely lame, moderately lame, or slightly lame, as follows:
Treatment response was classified as excellent, good, fair, or poor.
Soundness was subjectively rated by the veterinarian on a percent basis. Percent soundness at the study's onset was subtracted from percent soundness at the study's conclusion, and this difference was plotted as a histogram (graph 2), to show the magnitude of improvement with the 6 week course of treatment. At week 4 there was an average of 57% improvement. For instance, horse number 3 was rated as 25% sound at the onset of the study, and 100% sound after six weeks, yielding an improvement of 75%.

navicular disease [2] = test: Long term efficacy: follow up evaluation of soundness after termination of the 6 week treatment; format: in vivo, horse
Excerpt: Ten horses received a further follow up evaluation after termination of the 6 week treatment period. The horses are listed below, along with the date of visit (weeks post-initiation of study) and the soundness evaluation.

[3] = in vivo
Excerpt: (§1) Follow-up observations occurred weekly during the six week treatment period, and for a final time approximately 4 weeks after the 6 week treatment period was over. The follow-up visits consisted of a lameness evaluation on the lunge line, at the walk and at rest. Owners/trainers were asked to report any side effects observed that may or may not have been related to Pentoxifylline therapy, and any other problems that had arisen during the week, concurrent medications administered for other causes, and the horse's progress while being exercised. Blood samples were drawn prior to first treatment, at 3 weeks, and at 6 weeks for routine hematological and clinical chemistry profiles. Samples were drawn prior to lameness examination after the horse had been resting quietly in the stall. Most samples were drawn early in the afternoon, and were immediately submitted to Metro Animal Laboratories, Bloor Street, Toronto.

[4] = Side effects during the study
Excerpt: as §1

[5] = cited from earlier work
[6] = duration of lameness 2 years-5 years (5)
[7] = duration of lameness 5 years (4)
[8] = duration of lameness 6 months (7)
[9] = duration of lameness <6 months, >2 years (11)
[10] = lameness at onset moderate (11)

## CC(=O)CCCCn1c(=O)c2c(ncn2C)n(C)c1=O [pentoxifylline, 1-(5-oxohexyl)-3,7-dimethylxanthine]
Navicular disease [1]; 1 week
  response over time: evident at 1 week
Navicular disease [1]; 2 and 3 weeks
  response over time: marked at 2 and 3 weeks
Navicular disease [1]; 2 gm bid
  response at dose: not considered consistently optimal
Navicular disease [1]; 6 gram dosage divided tid
  response at dose: achieved the best results
Navicular disease [1]; between 4 and 6 weeks
  response over time: did not regress between 4 and 6 weeks
Navicular disease [1]; cases of greater than 5 years duration, 4 horses
  excellent responses, % of horses: 50%
Navicular disease [1]; cases of greater than 5 years duration, out of 4 horses
  excellent responses, number of horses: 2 horses
Navicular disease [1]; daily doses between 6 gm and 30 gm for 4-6 weeks
  effect on navicular lameness: effective in completely eliminating navicular lameness
Navicular disease [1]; [6]
  Response excellent, number of horses: 2 horses
  Response good, number of horses: 1 horses
  Response poor, number of horses: 1 horses
Navicular disease [1]; [7]
  Response excellent, number of horses: 2 horses
  Response fair, number of horses: 1 horses
  Response good, number of horses: 1 horses
Navicular disease [1]; [8]
  Response excellent, number of horses: 4 horses
  Response good, number of horses: 1 horses
  Response poor, number of horses: 1 horses
Navicular disease [1]; [9]
  Response excellent, number of horses: 7 horses
  Response fair, number of horses: 1 horses
  Response good, number of horses: 2 horses
  Response poor, number of horses: 1 horses
Navicular disease [1]; duration of lameness up to two years, 18 horses
  excellent responses, % of horses: 61%
Navicular disease [1]; duration of lameness up to two years, out of 18 horses
  excellent responses, number of horses: 11 horses
Navicular disease [1]; horse #9 (It's Casual), six week course, previous bilateral neurectomy
  treatment response: never showed significant improvement
Navicular disease [1]; horse #15 (Cheska)
  treatment assessment: refractory to pentoxifylline treatment
Navicular disease [1]; horse #15 (Cheska), end of 4 weeks, dosage increased to 2 gm tid
  evaluated sounder: 90%
Navicular disease [1]; horse #15 (Cheska), first 3 weeks, 2 gm bid, drug not administered properly
  treatment response: virtually no response
Navicular disease [1]; horse #15 (Cheska), weeks 5 and 6, after jumping in 4th week
  lameness: as lame as at the beginning
Navicular disease [1]; horse #18 (Molson), irregular treatment
  treatment assessment: refractory to treatment
Navicular disease [1]; horse #18 (Molson), week 3 and week 5
  treatment response: marked improvement
Navicular disease [1]; horse #18 (Molson), week 6, inconsistent drug administration
  lameness: as lame as at the onset of the study
Navicular disease [1]; horse number 3, 25% sound at onset
  percent soundness after six weeks: 100%
Navicular disease [1]; horse number 3, six weeks vs onset
  improvement in percent soundness: 75%
Navicular disease [1]; horses with moderate lameness
  response by lameness at onset: preponderance of excellent responses
Navicular disease [1]; [10]
  Response excellent, number of horses: 7 horses
  Response fair, number of horses: 2 horses
  Response good, number of horses: 1 horses
Navicular disease [1]; lameness at onset severe (8)
  Response good, number of horses: 1 horses
  Response poor, number of horses: 3 horses
Navicular disease [1]; lameness at onset slight (2)
  Response good, number of horses: 2 horses
Navicular disease [1]; lameness at onset slight-moderate (6)
  Response excellent, number of horses: 6 horses
Navicular disease [1]; n = 25, oral, 42 days
  Response fair, number of horses: 2 horses
  Response good, number of horses: 5 horses
  Response poor, number of horses: 3 horses
Navicular disease [1]; n = 25, oral, 42 days, 2 gm bid or tid
  Response excellent, number of horses: 15 horses
Navicular disease [1]; oral, 4 to 6 week treatment
  Response excellent, % of horses: 63%
  Response fair, % of horses: 8%
  Response good, % of horses: 20% and 17%
Navicular disease [1]; oral, 42 days
  Response poor, % of horses: 13%
Navicular disease [1]; response over time, graph 1
  time of maximal response: 4 weeks
Navicular disease [1]; varying severity and duration
  effect on lameness of navicular disease: effective in alleviating the lameness
Navicular disease [1]; week 4, subjective rating by veterinarian, difference from onset
  average improvement in percent soundness: 57%
Navicular disease [2]; 2 weeks after cessation, Innovator, Capital Gains, Ensign
  horses judged to be sore again after cessation of treatment: Three horses
Navicular disease [2]; horse 1 Jake, 9 weeks post-initiation
  follow up soundness: 80 % sound
Navicular disease [2]; horse 1 Jake, 11 weeks, being ridden
  follow up soundness: still sound
Navicular disease [2]; horse 1 Jake, 20 weeks, being ridden
  follow up soundness: 100 % sound
Navicular disease [2]; horse 1 Jake, greater than 6 weeks
  Status: Improved
Navicular disease [2]; horse 2 Lucky Lion, 2 gm once per day maintenance at 10 weeks
  Status: Improved
Navicular disease [2]; horse 3 Remeny
  Status: Improved
Navicular disease [2]; horse 3 Remeny, 12 weeks
  follow up soundness: hunting sound
Navicular disease [2]; horse 3 Remeny, 18 weeks
  follow up soundness: very sound
Navicular disease [2]; horse 4 Ensign
  Status: Same
Navicular disease [2]; horse 4 Ensign, 8 weeks
  follow up soundness: sore RF
Navicular disease [2]; horse 4 Ensign, 11 weeks, when given 2 gm/day
  follow up soundness: sound again
Navicular disease [2]; horse 5 Wessex
  Status: Improved
Navicular disease [2]; horse 5 Wessex, 15 weeks, compared with end of the 6 weeks
  follow up soundness: sounder than
Navicular disease [2]; horse 11 Capital Gains
  Status: Improved
Navicular disease [2]; horse 11 Capital Gains, 8 weeks, without drug
  follow up soundness: less sound
Navicular disease [2]; horse 13 Peaches 'N Cream
  Status: Same
Navicular disease [2]; horse 13 Peaches 'N Cream, 11 weeks, compared with when entered study
  follow up soundness: as sound
Navicular disease [2]; horse 14 Cash in McCue
  Status: Improved
Navicular disease [2]; horse 14 Cash in McCue, 12 weeks
  follow up soundness: 100 % sound
Navicular disease [2]; horse 16 B. E. Skipper
  Status: Improved
Navicular disease [2]; horse 16 B. E. Skipper, 11 weeks, looks sound in field
  follow up soundness in field: 100 % sound
Navicular disease [2]; horse 16 B. E. Skipper, 11 weeks, riding again
  follow up soundness: 90 % sounder
Navicular disease [2]; horse 20 Innovator
  Status: Worse
Navicular disease [2]; horse 20 Innovator, 7 weeks
  follow up soundness to LT: 80 % sounder
  follow up soundness to RT: 90 % sounder
Navicular disease [2]; horse 20 Innovator, 9 weeks, compared with before treatment
  follow up lameness: as lame at 9 weeks as he had been prior to treatment
Navicular disease [2]; of 10 horses followed up
  horses considered sounder than at the end of the 6 week treatment period: Seven of these 10 horses
Navicular disease [2]; other horses
  pattern when drug administration ceased: regressed rapidly when treatment ended
Navicular disease [2]; some cases
  pattern when drug administration ceased: maintained the improvement noted at 6 weeks
[3]
  Baso mean: 0.5%
  Cl mean: 98.9 mmol/L
  Clinical chemistry values vs equine reference range: within the reference range for the equine species
  Hematology values vs normal limits: within normal limits throughout the study
  Mean clinical chemistry values vs baseline: did not differ significantly
  Number of horses with platelets increased since baseline: 20 horses
  Platelets increase: 4,520
  clinical effect on blood chemistry: no clinical effect
  horses with lower platelet count at week 6 than at week 3: 13 horses
[4]; horse 14 Cash in McCue, after 2 weeks
  Sweating episodes: 5 episodes
[4]; horse 15 Cheska, RF at week 6
  Stocked up, number of horses: 1 horses
[4]; horse 23 Greek Anthem, between weeks 2 and 3, previous history of colic
  Colic, number of horses: 1 horses
[4]; horses 14 and 20
  Sweating, number of horses: 2 horses
[4]; in vivo
  Colic, relation to drug: unrelated
  Stocked up, relation to drug: unrelated
  harmful side effects: have not been identified
  horses with unusual occurrences: Four horses
[4]; throughout the study
  instances judged drug-related side effect: 1
[5]; human side effect
  Sweating in humans: occasional human side effect
[5]; lag in horses said to be similar
  lag period to maximum response in man: two week period

From patent publication US5077296A, “Method for treating equine navicular disease with pentoxifylline, and composition containing pentoxifylline for administrating to horses” (priority 1987, dated 1991)
